Source: BigSolDB 2.1

Oc1ccc(/C=C/c2cc(O)cc(O)c2)cc1
solubility (mole fraction)
Conditions | 288.15 K | 293.15 K | 298.15 K | 303.15 K | 308.15 K | 313.15 K
in transcutol | 0.148 | 0.15 | 0.153 | 0.156 | 0.159 | 0.161
in water | 1.29e-06 | 1.91e-06 | 2.78e-06 | 4e-06 | 5.74e-06 | 8.03e-06
